Reference: patent US10227344B2, “CK2 inhibitors, compositions and methods thereof” (Polaris Pharmaceuticals, Inc., priority 2016, dated 2019)
pKi: −log10 of the molar value. Structures can show the parent of a compound that is named as a salt.

Target: purified CK2α enzyme (Homo sapiens, UniProt P68400)
Assay: CK2 Protein Kinase Inhibition Assay (coupled PK/LDH assay)
Format: biochemical
Conditions: CK2 enzyme 25 nM, 100 μM ATP, 37° C., Morrison equation
Method: A coupled PK (pyruvate kinase)/LDH (lactate dehydrogenase) assay was used to measure compounds' ability to inhibit purified CK2α enzyme.
The ADP product of kinase CK2a is the cofactor for PK. Phospho(enol)pyruvate (PEP) PEP is metabolized by pyruvate kinase to yield pyruvate, which is the substrate for LDH.
Serially diluted compounds were pre-incubated for 10 min at 37° C. with and 1.5 mM […] peptide substrate, 6 U/ml PK and 10 U/ml LDH (purchased from Sigma-Aldrich), 100 μM ATP, 1.2 mM NADH, 4 mM PEP in the reaction buffer (50 mM Tris (pH 8.25), 0.1 M NaCl, 10 mM magnesium acetate). The reaction was initiated by the addition of an equal volume of purified CK2 enzyme (final concentration 25 nM) diluted in the reaction buffer. Absorbance at 340 nm was measured overtime (for 30 min) at 37° C.; as NADH was converted to NAD+ the absorbance decreases. Absorbance decrease rate (per min) was plotted against the compound concentration and Ki is determined by GraphPad Prism using Morrison equation. All data points were performed in triplicate and each compound was tested in at least two separate experiments.
To this end, K, values of less than 2.5 nM are labelled as “+++”, from 2.5 nM to 10 nM are labelled as “++”, and greater than 10 nM are labelled as “+”.

Sequence of purified CK2α enzyme (P68400 whole entry): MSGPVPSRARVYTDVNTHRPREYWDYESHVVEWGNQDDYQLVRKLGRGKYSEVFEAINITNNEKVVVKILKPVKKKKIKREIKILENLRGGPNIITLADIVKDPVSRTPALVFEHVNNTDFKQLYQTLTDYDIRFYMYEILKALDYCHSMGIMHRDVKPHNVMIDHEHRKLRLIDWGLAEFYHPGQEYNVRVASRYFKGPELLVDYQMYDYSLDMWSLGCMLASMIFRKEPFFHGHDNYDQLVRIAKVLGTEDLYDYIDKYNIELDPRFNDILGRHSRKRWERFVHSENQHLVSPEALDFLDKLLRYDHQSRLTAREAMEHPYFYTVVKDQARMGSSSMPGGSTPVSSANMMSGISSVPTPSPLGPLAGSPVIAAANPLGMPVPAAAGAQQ

Compound	pKi
C[S+]([O-])Cc1cc(Nc2cc(Nc3cccnc3)n3ncc(C#N)c3n2)ccc1C1CC1 (racemic) [Example 55, (±)-5-((4-Cyclopropyl-3-((methylsulfinyl)methyl)phenyl)amino)-7-(pyridin-3-ylamino)pyrazolo[1,5-a]pyrimidine-3-carbonitrile]	> 8.60
C[S+]([O-])Cc1cc(Nc2cc(Nc3ccc(N)nc3)n3ncc(C#N)c3n2)ccc1C1CC1 (racemic) [Example 56, (±)-7-((6-Aminopyridin-3-yl)amino)-5-((4-cyclopropyl-3-((methylsulfinyl)methyl)phenyl)amino)pyrazolo[1,5-a]pyrimidine-3-carbonitrile]	> 8.60
C[S+]([O-])Cc1cc(Nc2cc(Nc3ccc(N)cn3)n3ncc(C#N)c3n2)ccc1C1CC1 (racemic) [Example 57, (±)-7-((5-Aminopyridin-2-yl)amino)-5-((4-cyclopropyl-3-((methylsulfinyl)methyl)phenyl)amino)pyrazolo[1,5-a]pyrimidine-3-carbonitrile]	> 8.60
CC(N)c1ccc(Nc2cc(NC3CC3)n3ncc(C#N)c3n2)cc1C[S+](C)[O-] (racemic) [Example 58, (±)-5-((4-((R,S)-1-Aminoethyl)-3-((methylsulfinyl)methyl)phenyl)amino)-7-(cyclopropylamino)pyrazolo[1,5-a]pyrimidine-3-carbonitrile mono trifluoroacetic acid salt]	8.00 to 8.60
C[S+]([O-])Cc1cc(Nc2cc(NC3CC3)n3ncc(C#N)c3n2)ccc1C1(N)CC1 (racemic) [Example 59, (±)-5-((4-(1-Aminocyclopropyl)-3-((methylsulfinyl)methyl)phenyl)amino)-7-(cyclopropylamino)pyrazolo[1,5-a]pyrimidine-3-carbonitrile mono trifluoroacetic acid salt]	8.00 to 8.60
C/C(=C\CN)c1ccc(Nc2cc(NC3CC3)n3ncc(C#N)c3n2)cc1C[S+](C)[O-] (racemic) [Example 60, (±)-(E)-5-((4-(4-aminobut-2-en-2-yl)-3-((methylsulfinyl)methyl)phenyl)amino)-7-(cyclopropylamino)pyrazolo[1,5-a]pyrimidine-3-carbonitrile mono trifluoroacetic acid salt]	> 8.60
C[S+]([O-])Cc1cc(Nc2cc(NC3CC3)n3ncc(C#N)c3n2)ccc1C1CCCNC1 (racemic) [Example 61, (±)-7-(Cyclopropylamino)-5-((3-((methylsulfinyl)methyl)-4-((R,S)-piperidin-3-yl)phenyl)amino)pyrazolo[1,5-a]pyrimidine-3-carbonitrile mono trifluoroacetic acid salt]	8.00 to 8.60
C[S+]([O-])Cc1cc(Nc2cc(NC3CC3)n3ncc(C#N)c3n2)ccc1C1=CCNC1 (racemic) [Example 62, (±)-7-(Cyclopropylamino)-5-((4-(2,5-dihydro-1H-pyrrol-3-yl)-3-((methylsulfinyl)methyl)phenyl)amino)pyrazolo[1,5-a]pyrimidine-3-carbonitrile mono trifluoroacetic acid salt]	8.00 to 8.60
C[S+]([O-])Cc1cc(Nc2cc(NC3CC3)n3ncc(C#N)c3n2)ccc1C1CCNC1 (racemic) [Example 63, (±)-7-(Cyclopropylamino)-5-((3-((methylsulfinyl)methyl)-4-((R,S)-pyrrolidin-3-yl)phenyl)amino)pyrazolo[1,5-a]pyrimidine-3-carbonitrile mono trifluoroacetic acid salt]	8.00 to 8.60
CC(CCN)c1ccc(Nc2cc(NC3CC3)n3ncc(C#N)c3n2)cc1C[S+](C)[O-] (racemic) [Example 64, (±)-5-((4-(R,S)-4-Aminobutan-2-yl)-3-((methylsulfinyl)methyl)phenyl)amino)-7-(cyclopropylamino)pyrazolo[1,5-a]pyrimidine-3-carbonitrile mono trifluoroacetic acid salt]	8.00 to 8.60
CN(CC1(N)CC1)c1ccc(Nc2cc(NC3CC3)n3ncc(C#N)c3n2)cc1C[S+](C)[O-] (racemic) [Example 65, (±)-5-((4-(((1-Aminocyclopropyl)methyl)(methyl)amino)-3-((methylsulfinyl)methyl)phenyl)amino)-7-(cyclopropylamino)pyrazolo[1,5-a]pyrimidine-3-carbonitrile mono trifluoroacetic acid salt]	> 8.60
CN(CC(C)(C)N)c1ccc(Nc2cc(NC3CC3)n3ncc(C#N)c3n2)cc1C[S+](C)[O-] (racemic) [Example 67, (±)-5-((4-((2-Amino-2-methylpropyl)(methyl)amino)-3-((methylsulfinyl)methyl)phenyl)amino)-7-(cyclopropylamino)pyrazolo[1,5-a]pyrimidine-3-carbonitrile mono trifluoroacetic acid salt]	> 8.60
C[S+]([O-])Cc1cc(Nc2cc(Nc3ccc(N)cn3)n3ncc(C#N)c3n2)ccc1N1CC[C@H](N)C1 (mixture of isomers) [Example 68, (±)-7-((5-Aminopyridin-2-yl)amino)-5-((4-((S)-3-aminopyrrolidin-1-yl)-3-((methylsulfinyl)methyl)phenyl)amino)pyrazolo[1,5-a]pyrimidine-3-carbonitrile]	> 8.60
CN(C)Cc1ccc(Nc2cc(Nc3ccc(C4CC4)c(C[S+](C)[O-])c3)nc3c(C#N)cnn23)nc1 (racemic) [Example 69, (±)-5-((4-Cyclopropyl-3-((methylsulfinyl)methyl)phenyl)amino)-7-((5-((dimethylamino)methyl)pyridin-2-yl)amino)pyrazolo[1,5-a]pyrimidine-3-carbonitrile]	> 8.60
CS(=O)(=O)Cc1cc(Nc2cc(NC3CC3)n3ncc(C#N)c3n2)ccc1Cl [Example 2, 5-((4-Chloro-3-((methylsulfonyl)methyl)phenyl)amino)-7-(cyclopropylamino)pyrazolo[1,5-a]pyrimidine-3-carbonitrile]	> 8.60
C[S@@+]([O-])Cc1cc(Nc2cc(NC3CC3)n3ncc(C#N)c3n2)ccc1Cl [Example 4, (R)(−)-5-((4-Chloro-3-((methylsulfinyl)methyl)phenyl)amino)-7-(cyclopropylamino)pyrazolo[1,5-a]pyrimidine-3-carbonitrile]	8.00 to 8.60
CS(=O)(=O)Cc1cc(Nc2cc(NC3CC3)n3ncc(C#N)c3n2)ccc1C#N [Example 9, 5-((4-Cyano-3-((methylsulfonyl)methyl)phenyl)amino)-7-(cyclopropylamino)pyrazolo[1,5-a]pyrimidine-3-carbonitrile]	> 8.60
CN(CCN)c1ccc(Nc2cc(NC3CC3)n3ncc(C#N)c3n2)cc1CS(C)(=O)=O [Example 10, 5-((4-((2-Aminoethyl)(methyl)amino)-3-((methylsulfonyl)methyl)phenyl)amino)-7-(cyclopropylamino)pyrazolo[1,5-a]pyrimidine-3-carbonitrile mono trifluoroacetic acid salt]	> 8.60
CS(=O)(=O)Cc1cc(Nc2cc(NC3CC3)n3ncc(C#N)c3n2)ccc1CCN [Example 11, 5-((4-(2-Aminoethyl)-3-((methylsulfonyl)methyl)phenyl)amino)-7-(cyclopropylamino)pyrazolo[1,5-a]pyrimidine-3-carbonitrile mono trifluoroacetic acid salt]	> 8.60
C[S+]([O-])Cc1cc(Nc2cc(NC3CC3)n3ncc(C#N)c3n2)ccc1N1CC[C@@H](N)C1 (stereo partly drawn) [Example 22, 5-((4-((R)-3-Aminopyrrolidin-1-yl)-3-(((R,S)-methylsulfinyl)methyl)phenyl)amino)-7-(cyclopropylamino)pyrazolo[1,5-a]pyrimidine-3-carbonitrile mono trifluoroacetic acid salt]	> 8.60
C[S+]([O-])Cc1cc(Nc2cc(NC3CC3)n3ncc(C#N)c3n2)ccc1N1CC[C@H](N)C1 (stereo partly drawn) [Example 23, 5-((4-((S)-3-Aminopyrrolidin-1-yl)-3-(((R,S)-methylsulfinyl)methyl)phenyl)amino)-7-(cyclopropylamino)pyrazolo[1,5-a]pyrimidine-3-carbonitrile mono trifluoroacetic acid salt]	> 8.60
C[S+]([O-])Cc1cc(Nc2cc(NC3CC3)n3ncc(C#N)c3n2)ccc1N1CCC[C@@H](N)C1 (stereo partly drawn) [Example 24, 5-((4-((R)-3-Aminopiperidin-1-yl)-3-(((R,S)-methylsulfinyl)methyl)phenyl)amino)-7-(cyclopropylamino)pyrazolo[1,5-a]pyrimidine-3-carbonitrile mono trifluoroacetic acid salt]	> 8.60
C[S+]([O-])Cc1cc(Nc2cc(NC3CC3)n3ncc(C#N)c3n2)ccc1N1CCC[C@H](N)C1 (stereo partly drawn) [Example 25, 5-((4-((S)-3-Aminopiperidin-1-yl)-3-(((R,S)-methylsulfinyl)methyl)phenyl)amino)-7-(cyclopropylamino)pyrazolo[1,5-a]pyrimidine-3-carbonitrile mono trifluoroacetic acid salt]	> 8.60
CS(=O)(=O)Cc1cc(Nc2cc(NC3CC3)n3ncc(C#N)c3n2)ccc1N1CC[C@H](N)C1 [Example 29, (S)-5-((4-(3-aminopyrrolidin-1-yl)-3-((methylsulfonyl)methyl)phenyl)amino)-7-(cyclopropylamino)pyrazolo[1,5-a]pyrimidine-3-carbonitrile mono trifluoroacetic acid salt]	> 8.60
CN(C)c1ccc(Nc2cc(NC3CC3)n3ncc(C#N)c3n2)cc1CS(C)(=O)=O [Example 34, 7-(Cyclopropylamino)-5-((4-(dimethylamino)-3-((methylsulfonyl)methyl)phenyl)amino)pyrazolo[1,5-a]pyrimidine-3-carbonitrile]	> 8.60
